Test results taken from patent US20120277209A1, “PYRAZINE COMPOUNDS AS PHOSPHODIESTERASE 10 INHIBITORS” (Amgen Inc., priority 2009, published 2012).

Target: PDE10 (UniProt Q9Y233)
Test: PDE10 enzyme inhibition, IMAP TR-FRET assay (MPDE10A7 Enzyme Activity and Inhibition)
Type: biochemical
Details: IC50 class against PDE10; read-out: IC50
Method in brief: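 PDE10A enzyme or tissue homogenate preincubated with compounds 30 min at room temperature, then fluorescein-labelled cAMP or cGMP added for 60 min. IMAP binding reagent stop, TR-FRET read. Values are mean IC50s, grouped into five potency classes.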

How did the IC50 turn out when COC(=O)N1CCC(c2nccnc2Oc2ccc(C(=O)c3nc4ccccc4[nH]3)cc2)CC1 [Example 227, methyl 4-(3-(4-(1H-benzo[d]imidazole-2-carbonyl)phenoxy)pyrazin-2-yl)piperidine-1-carboxylate] was run?
The IC50 was under 0.025 µM.

With COC(=O)c1ccc(-c2nccnc2Oc2ccc(C(=O)c3nc4ccccc4[nH]3)cc2)cc1 [Example 126, methyl 4-(3-(4-(1H-benzo[d]imidazole-2-carbonyl)phenoxy)pyrazin-2-yl)benzoate] as the compound, how does the IC50 read?
The IC50 was under 0.025 µM.

With COc1ccccc1-c1nccnc1Oc1ccc(C(=O)c2nc3ccccc3[nH]2)cc1 [Example 114, (1H-benzo[d]imidazol-2-yl)(4-(3-(2-methoxyphenyl)pyrazin-2-yloxy)phenyl)methanone] as the compound, how does the IC50 read?
The IC50 was 0.025 to 0.1 µM.

For O=C(c1ccc(Oc2nccnc2Cl)cc1)c1nc2ccccc2[nH]1 [Example 3, (1H-BENZO[D]IMIDAZOL-2-YL)(4-(3-CHLOROPYRAZIN-2-YLOXY)PHENYL)METHANONE], which IC50 is on record?
The IC50 was 1 to 5 µM.

Which IC50 does the source give for CN(C)CCOc1nccnc1Oc1ccc(C(=O)c2nc3ccccc3[nH]2)cc1 [Example 174, (1H-benzo[d]imidazol-2-yl)(4-(3-(2-(dimethylamino)ethoxy)pyrazin-2-yloxy)phenyl)methanone] here?
The IC50 was 0.1 to 0.25 µM.

Which IC50 does the source give for O=C(c1ccc(Oc2nccnc2-c2ccncc2)cc1)c1nc2ccccc2[nH]1 [Example 124, (1H-benzo[d]imidazol-2-yl)(4-(3-(pyridin-4-yl)pyrazin-2-yloxy)phenyl)methanone] here?
Its IC50 is under 0.025 µM.

Cc1ncsc1CCOc1nccnc1Oc1ccc(C(=O)c2nc3ccccc3[nH]2)cc1 [Example 170, (1H-benzo[d]imidazol-2-yl)(4-(3-(2-(4-methylthiazol-5-yl)ethoxy)pyrazin-2-yloxy)phenyl)methanone] was tested. Which IC50 did it give?
Its IC50 is 0.1 to 0.25 µM.

Which IC50 does the source give for O=C(c1ccc(Oc2nccnc2Oc2cccnc2)cc1)c1nc2ccccc2[nH]1 [Example 168, (1H-benzo[d]imidazol-2-yl)(4-(3-(pyridin-3-yloxy)pyrazin-2-yloxy)phenyl)methanone] here?
Its IC50 is 0.1 to 0.25 µM.

How did the IC50 turn out when Fc1cc(Oc2cnccn2)ccc1Nc1nc2ccccc2s1 [Example 216, N-(2-fluoro-4-(pyrazin-2-yloxy)phenyl)benzo[d]thiazol-2-amine] was run?
The IC50 was 1 to 5 µM.

Same assay, conditions: PDE10 enzyme inhibition; average IC50 data for each compound; read-out: Average IC50

For CC1(C)CCC(=O)[C@H](c2nccnc2Oc2ccc(C(=O)c3nc4ccccc4[nH]3)cc2)C1, which IC50 is on record?
The IC50 was 0.0418 µM.

O=C(c1ccc(Oc2nccnc2Oc2ccccc2)cc1)c1nc2ccccc2[nH]1 [drawing 850] was tested. Which IC50 did it give?
Its IC50 is 2.12 µM.

COCC1CCCN(c2nccnc2Oc2ccc(Nc3nc4ccccc4s3)cc2)C1 (centres unmarked) [drawing 736] was tested. Which IC50 did it give?
Its IC50 is 0.0185 µM.

With O[C@H]1CCC[C@@H](c2nccnc2Oc2ccc(Nc3nc4ccccc4s3)cc2)C1 [drawing 903] as the compound, how does the IC50 read?
The IC50 was 0.00133 µM.

For CC(=O)N1CC[C@@H](c2nccnc2Oc2ccc(Nc3nc4ccccc4s3)cc2)C1 (stereo in doubt), which IC50 is on record?
Its IC50 is 0.00182 µM.

How did the IC50 turn out when CCOC(=O)[C@H]1CCCN(c2nccnc2Oc2ccc(C(=O)c3nc4ccccc4[nH]3)cc2)C1 [drawing 831] was run?
The IC50 was 0.000843 µM.

For COC[C@@H]1CCCN1c1nccnc1Oc1ccc(Nc2nc3ccccc3s2)cc1 [drawing 719], which IC50 is on record?
The IC50 was 0.00944 µM.

Same assay, conditions: PDE10 enzyme inhibition; chiral compounds separated from racemic mixtures; read-out: IC50

With O=C(c1ccc(Oc2nccnc2[C@@H]2CCC[C@H](O)C2)cc1)c1nc2ccccc2[nH]1 [Example 269, (1H-benzo[d]imidazol-2-yl)(4-(3-((1R,3S)-3-hydroxycyclohexyl)pyrazin-2-yloxy)phenyl) methanone] as the compound, how does the IC50 read?
Its IC50 is under 0.025 µM.
